# Experimental data: PubChem BioAssay (NCI)
#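 Dose response: 5 concentrations. Exposure: 48 h. Format: 96-well plates. Endpoint: linear interpolation; highest concentration if not reached. TGI marks complete inhibition of growth.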
# What was measured:
# Experiment in all cases: NCI tumour cell line growth inhibition, 48 h
# M19-MEL melanoma = system: M19-MEL melanoma
# U251 CNS = system: U251 CNS
# K-562 leukemia = system: K-562 leukemia
# KM20L2 colon = system: KM20L2 colon
# TK-10 renal = system: TK-10 renal
# HCC-2998 colon = system: HCC-2998 colon
# NCI-H460 lung = system: NCI-H460 lung
# KM12 colon = system: KM12 colon
# DMS 273 small cell lung = system: DMS 273 small cell lung
# RPMI-8226 leukemia = system: RPMI-8226 leukemia
# 786-0 renal = system: 786-0 renal
# SW-620 colon = system: SW-620 colon
# M14 melanoma = system: M14 melanoma
# LOX IMVI melanoma = system: LOX IMVI melanoma
# UACC-257 melanoma = system: UACC-257 melanoma
# A498 renal = system: A498 renal
# OVCAR-3 ovarian = system: OVCAR-3 ovarian
# SNB-78 CNS = system: SNB-78 CNS
# NCI-H522 lung = system: NCI-H522 lung
# ACHN renal = system: ACHN renal
# EKVX NSCLC = system: EKVX NSCLC
# SF-539 CNS = system: SF-539 CNS
# A549 NSCLC = system: A549 NSCLC
# CAKI-1 renal = system: CAKI-1 renal
# MOLT-4 leukemia = system: MOLT-4 leukemia
# NCI-H226 lung = system: NCI-H226 lung
# MALME-3M melanoma = system: MALME-3M melanoma
# OVCAR-8 ovarian = system: OVCAR-8 ovarian
# NCI-H23 lung = system: NCI-H23 lung
# HCT-116 colon = system: HCT-116 colon
# SK-MEL-2 melanoma = system: SK-MEL-2 melanoma
# SF-295 CNS = system: SF-295 CNS
# SNB-75 CNS = system: SNB-75 CNS
# SK-MEL-5 melanoma = system: SK-MEL-5 melanoma
# IGROV1 ovarian = system: IGROV1 ovarian
# SNB-19 CNS = system: SNB-19 CNS
# COLO 205 colon = system: COLO 205 colon
# HT29 colon = system: HT29 colon
# RXF 393 renal = system: RXF 393 renal
# SK-MEL-28 melanoma = system: SK-MEL-28 melanoma
# SN12C renal = system: SN12C renal
# HL-60(TB) leukemia = system: HL-60(TB) leukemia
# HOP-18 NSCLC = system: HOP-18 NSCLC
# SF-268 CNS = system: SF-268 CNS
# OVCAR-4 ovarian = system: OVCAR-4 ovarian
# SK-OV-3 ovarian = system: SK-OV-3 ovarian
# HOP-62 NSCLC = system: HOP-62 NSCLC
# DMS 114 small cell lung = system: DMS 114 small cell lung
# UACC-62 melanoma = system: UACC-62 melanoma
# HCT-15 colon = system: HCT-15 colon
# LXFL 529 NSCLC = system: LXFL 529 NSCLC
# UO-31 renal = system: UO-31 renal
# OVCAR-5 ovarian = system: OVCAR-5 ovarian
# CCRF-CEM leukemia = system: CCRF-CEM leukemia
# HOP-92 NSCLC = system: HOP-92 NSCLC
# DLD-1 colon = system: DLD-1 colon
smiles,measurement,setting,value
O=C1/C(=N\O)C2CCC1C2 (stereo unspecified),TGI,M19-MEL melanoma,> 100 µM
same,TGI,U251 CNS,> 100 µM
same,TGI,K-562 leukemia,> 100 µM
same,TGI,KM20L2 colon,> 100 µM
same,TGI,TK-10 renal,> 100 µM
same,TGI,HCC-2998 colon,> 100 µM
same,TGI,NCI-H460 lung,> 100 µM
same,TGI,KM12 colon,> 100 µM
same,TGI,DMS 273 small cell lung,> 100 µM
same,TGI,RPMI-8226 leukemia,> 100 µM
same,TGI,786-0 renal,> 100 µM
same,TGI,SW-620 colon,> 100 µM
same,TGI,M14 melanoma,> 100 µM
same,TGI,LOX IMVI melanoma,> 100 µM
same,TGI,UACC-257 melanoma,> 100 µM
same,TGI,A498 renal,> 100 µM
same,TGI,OVCAR-3 ovarian,> 100 µM
same,TGI,SNB-78 CNS,> 100 µM
same,TGI,NCI-H522 lung,> 100 µM
same,TGI,ACHN renal,> 100 µM
same,TGI,EKVX NSCLC,> 100 µM
same,TGI,SF-539 CNS,> 100 µM
same,TGI,A549 NSCLC,> 100 µM
same,TGI,CAKI-1 renal,> 100 µM
same,TGI,MOLT-4 leukemia,> 100 µM
same,TGI,NCI-H226 lung,> 100 µM
same,TGI,MALME-3M melanoma,> 100 µM
same,TGI,OVCAR-8 ovarian,> 100 µM
same,TGI,NCI-H23 lung,> 100 µM
same,TGI,HCT-116 colon,> 100 µM
same,TGI,SK-MEL-2 melanoma,> 100 µM
same,TGI,SF-295 CNS,> 100 µM
same,TGI,SNB-75 CNS,> 100 µM
same,TGI,SK-MEL-5 melanoma,> 100 µM
same,TGI,IGROV1 ovarian,> 100 µM
same,TGI,SNB-19 CNS,> 100 µM
same,TGI,COLO 205 colon,> 100 µM
same,TGI,HT29 colon,> 100 µM
same,TGI,RXF 393 renal,> 100 µM
same,TGI,SK-MEL-28 melanoma,> 100 µM
same,TGI,SN12C renal,> 100 µM
same,TGI,HL-60(TB) leukemia,> 100 µM
same,TGI,HOP-18 NSCLC,> 100 µM
same,TGI,SF-268 CNS,> 100 µM
same,TGI,OVCAR-4 ovarian,> 100 µM
same,TGI,SK-OV-3 ovarian,> 100 µM
same,TGI,HOP-62 NSCLC,> 100 µM
same,TGI,DMS 114 small cell lung,> 100 µM
same,TGI,UACC-62 melanoma,> 100 µM
same,TGI,HCT-15 colon,> 100 µM
same,TGI,LXFL 529 NSCLC,> 100 µM
same,TGI,UO-31 renal,> 100 µM
same,TGI,OVCAR-5 ovarian,> 100 µM
same,TGI,CCRF-CEM leukemia,> 100 µM
same,TGI,HOP-92 NSCLC,> 100 µM
Clc1ccc(OCCSCCCCCCCCCCSCCOc2ccc(Cl)cc2)cc1,TGI,M19-MEL melanoma,> 100 µM
same,TGI,U251 CNS,> 100 µM
same,TGI,K-562 leukemia,> 100 µM
same,TGI,KM20L2 colon,> 100 µM
same,TGI,TK-10 renal,> 100 µM
same,TGI,HCC-2998 colon,> 100 µM
same,TGI,NCI-H460 lung,> 100 µM
same,TGI,KM12 colon,> 100 µM
same,TGI,DMS 273 small cell lung,> 100 µM
same,TGI,RPMI-8226 leukemia,> 100 µM
same,TGI,786-0 renal,> 100 µM
same,TGI,SW-620 colon,> 100 µM
same,TGI,LOX IMVI melanoma,> 100 µM
same,TGI,UACC-257 melanoma,> 100 µM
same,TGI,A498 renal,> 100 µM
same,TGI,OVCAR-3 ovarian,> 100 µM
same,TGI,SNB-78 CNS,> 100 µM
same,TGI,NCI-H522 lung,> 100 µM
same,TGI,ACHN renal,> 100 µM
same,TGI,EKVX NSCLC,> 100 µM
same,TGI,SF-539 CNS,> 100 µM
same,TGI,A549 NSCLC,> 100 µM
same,TGI,CAKI-1 renal,> 100 µM
same,TGI,MOLT-4 leukemia,> 100 µM
same,TGI,NCI-H226 lung,> 100 µM
same,TGI,MALME-3M melanoma,> 100 µM
same,TGI,OVCAR-8 ovarian,> 100 µM
same,TGI,NCI-H23 lung,> 100 µM
same,TGI,SK-MEL-2 melanoma,> 100 µM
same,TGI,SF-295 CNS,> 100 µM
same,TGI,SNB-75 CNS,> 100 µM
same,TGI,SK-MEL-5 melanoma,> 100 µM
same,TGI,IGROV1 ovarian,> 100 µM
same,TGI,SNB-19 CNS,> 100 µM
same,TGI,COLO 205 colon,> 100 µM
same,TGI,HT29 colon,> 100 µM
same,TGI,RXF 393 renal,> 100 µM
same,TGI,DLD-1 colon,> 100 µM
same,TGI,SK-MEL-28 melanoma,> 100 µM
same,TGI,SN12C renal,> 100 µM
same,TGI,HL-60(TB) leukemia,> 100 µM
same,TGI,HOP-18 NSCLC,> 100 µM
same,TGI,SF-268 CNS,> 100 µM
same,TGI,SK-OV-3 ovarian,> 100 µM
same,TGI,HOP-62 NSCLC,> 100 µM
same,TGI,DMS 114 small cell lung,> 100 µM
same,TGI,UACC-62 melanoma,> 100 µM
same,TGI,HCT-15 colon,> 100 µM
same,TGI,UO-31 renal,> 100 µM
same,TGI,OVCAR-5 ovarian,> 100 µM
same,TGI,CCRF-CEM leukemia,> 100 µM
same,TGI,HOP-92 NSCLC,> 100 µM
O=C(c1ccccc1)C(c1ccccc1)C1(O)C(=O)Nc2c(Cl)ccc(Cl)c21 (stereo unspecified),TGI,U251 CNS,78.8 µM
same,TGI,K-562 leukemia,35 µM
same,TGI,KM20L2 colon,> 100 µM
same,TGI,TK-10 renal,> 67.3 µM
same,TGI,HCC-2998 colon,77.7 µM
same,TGI,NCI-H460 lung,56.8 µM
same,TGI,KM12 colon,50.5 µM
same,TGI,DMS 273 small cell lung,42.9 µM
same,TGI,RPMI-8226 leukemia,40.8 µM
same,TGI,786-0 renal,39.9 µM
same,TGI,SW-620 colon,37.9 µM
same,TGI,M14 melanoma,30.7 µM
same,TGI,LOX IMVI melanoma,28 µM
same,TGI,UACC-257 melanoma,29.9 µM
same,TGI,A498 renal,64.6 µM
same,TGI,OVCAR-3 ovarian,32.4 µM
same,TGI,SNB-78 CNS,64 µM
same,TGI,NCI-H522 lung,34.9 µM
same,TGI,ACHN renal,31.7 µM
same,TGI,EKVX NSCLC,32.6 µM
same,TGI,SF-539 CNS,44.5 µM
same,TGI,A549 NSCLC,> 69.1 µM
same,TGI,CAKI-1 renal,39.8 µM
same,TGI,MOLT-4 leukemia,49 µM
same,TGI,MALME-3M melanoma,31.3 µM
same,TGI,OVCAR-8 ovarian,44.7 µM
same,TGI,NCI-H23 lung,35.6 µM
same,TGI,HCT-116 colon,31 µM
same,TGI,SK-MEL-2 melanoma,39.5 µM
same,TGI,SF-295 CNS,31.1 µM
same,TGI,SNB-75 CNS,39.2 µM
same,TGI,SK-MEL-5 melanoma,34.1 µM
same,TGI,IGROV1 ovarian,42.7 µM
same,TGI,SNB-19 CNS,> 85.6 µM
same,TGI,COLO 205 colon,38.5 µM
same,TGI,HT29 colon,47.1 µM
same,TGI,RXF 393 renal,33.8 µM
same,TGI,DLD-1 colon,35 µM
same,TGI,SK-MEL-28 melanoma,34.6 µM
same,TGI,SN12C renal,31.8 µM
same,TGI,HL-60(TB) leukemia,38.5 µM
same,TGI,HOP-18 NSCLC,49.3 µM
same,TGI,SF-268 CNS,54 µM
same,TGI,OVCAR-4 ovarian,13.4 µM
same,TGI,SK-OV-3 ovarian,> 60.8 µM
same,TGI,HOP-62 NSCLC,49.8 µM
same,TGI,DMS 114 small cell lung,37.2 µM
same,TGI,UACC-62 melanoma,33.8 µM
same,TGI,HCT-15 colon,36.2 µM
same,TGI,LXFL 529 NSCLC,31.2 µM
same,TGI,UO-31 renal,39.1 µM
same,TGI,OVCAR-5 ovarian,35.5 µM
same,TGI,CCRF-CEM leukemia,46.6 µM
same,TGI,HOP-92 NSCLC,35.4 µM
